Read-outs that look alike come from different tables or passages of the source.
Columns and labels:
[1] = system: P388 murine leukemia cells; experiment: Cytotoxic effect in P388 cells; assay type: cell-based; settings: Mus musculus, P388, read-out: IC50 (nM) P-388; Table 2
From the text: The cytotoxic effects of phenylahistin, dehydrophenylahistin and various derivatives of dehydrophenylahistin were examined in P388 murine leukemia cells, HT-29 human colon cells, and PC-3 prostatic adenocarcinoma cells.

HT-29 human colon cells = experiment: Tumor cytotoxicity assay, resazurin fluorescence, 48 h (Example 6); assay type: cell-based
[2] = system: PC-3 prostatic adenocarcinoma cells; experiment: as above; assay type: cell-based, human; settings: Homo sapiens; Table 2; read-out: EC50 (nM) PC-3
Procedure: 10× concentrated serial dilutions of the two compounds were prepared in appropriate culture medium for final concentrations ranging from 2.0×10^−5 M to 2.0×10^−10 M. Ten μl volumes of the 10× serial dilutions were added to the test wells in triplicate and the plates returned to the incubator for 48 hours.
(§1) Following 48 hours of drug exposure 10 μl of 0.2 mg/ml resazurin (obtained from Sigma-Aldrich Chemical Co.) in Mg^2+, Ca^2+ free PBS was added to each well and the plates were returned to the incubator for 3-4 hours. […] Resazurin dye without cells was used to determine the background, which was subtracted from the data for all experimental wells. The data were analyzed using Prism software (GraphPad Software).
PC-3, a human prostate adenocarcinoma, was maintained in F12K complete medium (F12K medium supplemented with 10% FBS; 2 mM Glutamine; 1% HEPES; and Pen/Strep at 100 IU/ml and 100 µg/ml, respectively).

Candida glabrata = experiment: Antifungal susceptibility testing, broth dilution (MIC/MFC); assay type: cell-based; settings: Nakaseomyces glabratus; C. glabrata; read-out: MIC
How it was run: (§2)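 Tested against two isolates per species (one for C. glabrata). After MIC, fungicidal concentration determined by plating 0.1 μl from MIC and each higher concentration.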

Trichophyton rubrum = experiment: as above; assay type: cell-based; settings: in words
How it was run: as §2

Candida albicans = experiment: as above; assay type: cell-based; settings: Candida albicans; C. albicans 90028; read-out: MIC
How it was run: as §2

Aspergillus fumigatus = experiment: as above; assay type: cell-based; settings: Aspergillus fumigatus, read-out: MIC
How it was run: as §2

[3] = system: Jurkat cells (human T cell leukemia line); experiment: DNA fragmentation (DNA laddering); assay type: cell-based
From the text: A late stage characteristic of apoptosis is internucleosomal DNA cleavage that results in a distinctive ladder pattern that can be visualized by gel electrophoresis.

[4] = system: Trichophyton mentagrophytes; experiment: Antifungal susceptibility testing, broth dilution (MIC/MFC); assay type: cell-based; settings: in words
Procedure: Specifically, disclosed compounds were evaluated alongside commercially available microtubulin inhibitors as well as recognized antifungal agents. […].
Microorganisms against which these compounds were tested included: Candida albicans, Candida glabrata, Aspergillus fumigatus, Trichophyton rubrum, Trichophyton mentagrophytes, Epidermophyton floccosum. With the exception of Candida glabrata (one isolate), two isolates of each species were tested.
Drug concentrations were 0.03-16 μg/ml for the investigational compounds, 0.015-8 μg/ml for itraconazole and griseofulvin.
The minimum lethal concentration (MLC) was determined by plating […] from the MIC concentration and each concentration above the MIC. […] When a MIC was obtained, a minimum fungicidal concentration (MFC) was determined to assess the fungistatic/fungicidal nature of the compound. […] The compound is scored as fungistatic if the cells are able to resume growth and fungicidal if no regrowth is possible because the compound had killed the organisms.

[5] = system: B16-F10 murine melanoma cells; experiment: B16-F10 Metastatic Murine Melanoma Model; assay type: in vivo, B6D2F1 mice; settings: monotherapy, lung surface metastases day 16
Procedure: (§3) The animals used were: female nude mice (nu/ni) (MDA-231 study) or B6D2F1 (B16-F10 studies) mice between 5 and 6 weeks of age (˜20 g, Harlan); group size was 10 mice per group unless otherwise indicated.
(§4) The cell lines used were: MDA-MB-231 human breast tumor and B16-F10 murine melanoma cells.
(§5) NPI compounds were administered as monotherapy via the intraperitoneal route at the doses indicated for the individual study; for the combination studies the selected reference chemotherapy agents were injected 15-30 min prior to the NPI compound.
Mice received B16-F10 cells (prepared from an in vitro cell culture of B16-F10 cells) by the iv route on Day 0. On Day 1 mice were randomized into treatment and control groups and treatment commenced. Mice were weighed twice weekly, starting on Day 1. All mice are sacrificed on Day 16, the lungs removed, weighed and the surface colonies counted. Results are expressed as mean colonies of treated mice/mean colonies of control mice (T/C)×100%). The metastasis growth inhibition (MGI) is this number subtracted from 100%. Paclitaxel was the standard chemotherapy agent used in this study.
In this model unless otherwise noted for the individual study, the test compounds were administered via the intraperitoneal route on Days 1-5 (qdx5); paclitaxel was administered intravenously on Days 1-5(qdx5).

[6] = system: MES-SA/Dx5 multidrug resistant; experiment: Cell growth inhibition assay, resazurin (Example 11); assay type: cell-based, human
Procedure: (§6) Human uterine sarcoma (MES-SA; CRL-1976), its multidrug resistant derivative (MES-SA/Dx5; CRL-1977), human acute promyelocytic leukemia cells (HL-60; CCL-240) and its multidrug resistant derivative (HL-60/MX2; CRL-2257) were purchased from ATCC and maintained in appropriate culture media. The cells were cultured in an incubator at 37° C. in 5% CO2 and 95% humidified air.
(§7) For cell growth inhibition assays, MES-SA and MES-SA/Dx5 cells were both seeded at 3×10^3 cells/well in 90 μl complete media into 96 well (Corning; 3904) black-walled, clear-bottom tissue culture plates and the plates were incubated overnight to allow cells to establish and enter log phase growth. HL-60 and HL-60/MX2 cells were both seeded at 5×10^4 cells/well in 90 μl complete media into 96 well plates on the day of compound addition. 20 mM stock solutions of the compounds were prepared in 100% DMSO and stored at −80° C. […] Ten μl volumes of the 10× serial dilutions were added to the test wells in triplicate and the plates returned to the incubator for 48 hours. The final concentration of DMSO was 0.25% in all samples.
as §1, with “exposure,” for “exposure”, “phosphate buffered saline” for “PBS”, “3-6” for “3-4”, “dye in medium” for “dye”, “wells.” for “wells. The data were analyzed using Prism software (GraphPad Software).”
(§8) The multidrug resistant MES-SA/Dx5 tumor cell line was derived from the human uterine sarcoma MES-SA tumor cell line and expresses elevated P-Glycoprotein (P-gp), an ATP dependent efflux pump. The data in Table 19 summarize the growth inhibitory effects of NPI-2421, NPI-2463, NPI-2503, NPI-2504 and NPI-2506 against MES-SA and its multidrug resistant derivative MES-SA/Dx5. Paclitaxel, a known substrate of the P-gp pump was included as a control.

[7] = system: MES-SA human uterine sarcoma; experiment: as above; assay type: cell-based; settings: mean ± standard deviation of three independent experiments
Procedure: as §6, §7
as §1, with “exposure,” for “exposure”, “phosphate buffered saline” for “PBS”, “3-6” for “3-4”, “dye in medium” for “dye”, “wells.” for “wells. The data were analyzed using Prism software (GraphPad Software).”
as §8

[8] = system: MDA-231 human breast tumor; experiment: MDA-231 Human Breast Tumor Orthotopic Xenograft Model (mammary fat pad); assay type: in vivo, nude mice; settings: Breast MDA-231 (1 study); Paclitaxel qdx5 alone
Procedure: as §3, §4, §5
Female nude mice were injected in the mammary fat pad with 2×10^6 MDA-231 cells harvested from in vitro cell culture. When the tumor size reached 5 mm×5 mm (about 14-28 days) the animals were matched into treatment and control groups. The study then proceeded as described for the HT-29 model, using paclitaxel as the standard chemotherapy agent.
In this model unless otherwise noted for the individual study, the test compounds were administered via the intraperitoneal route on Days 1, 4, 8, 11 and 15 (q3dx5); paclitaxel was administered via the intraperitoneal route on Days 1-5 (qdx5).
This model involves the placement of the human tumor tissue into the mouse mammary fat pad, a surrogate of the natural environment. In this manner the possibility of a positive effect due to a specific action on the subcutaneous vascular bed is avoided.

[9] = system: A549 human non small cell lung tumor; experiment: A549 Human Lung Tumor Xenograft Model; assay type: in vivo, nude mice
Procedure: (§9) Animals used were (exceptions are indicated for individual studies): female nude mice (nu/nu) between 5 and 6 weeks of age (˜20 g, Harlan); group size was 9-10 mice per group unless otherwise indicated.
(§10) Selected novel compounds were administered as monotherapy via the intraperitoneal (i.p.) route at the doses indicated for the individual study; for the combination studies the selected reference chemotherapy agents were injected 15-30 min prior to the compound.
(§11) Saline dilutions are used to achieve the injection concentrations used for the reference compounds.
Animals were implanted s.c. by trocar with fragments of A549 tumors harvested from s.c. growing tumors in nude mice hosts. When the tumor size reached 5 mm×5 mm (about 10-17 days) the animals were matched into treatment and control groups.

[10] = system: DU-145 human prostate tumor; experiment: DU-145 Human Prostate Tumor Xenograft Model; assay type: in vivo, nude mice; settings: taxotere alone
Procedure: When the tumors reached 5 mm×5 mm (at about 13-17 days) the animals were matched into treatment and control groups.
In this model unless otherwise noted for the individual study, test compounds were administered via the intraperitoneal route on Days 1, 3, 5, 8 and 11 (q3dx5); taxotere was administered intravenously on Days 1, 3 and 5 (q2dx3).

MCF-7 human breast tumor = experiment: MCF-7 Human Breast Tumor Xenograft Model; assay type: in vivo, nude mice; settings: Breast MCF-7 (2 studies); Taxotere Days 1, 3, 5 alone
Procedure: as §9, §10, §11
Female nude mice (˜20 g) were implanted s.c. with 21-day release estrogen (0.25 mg) pellets 24 hours prior to the s.c. implantation with MCF-7 tumor fragments (harvested from s.c. tumors in nude mice hosts). The study then proceeded as described for the HT-29 model, using taxotere as the standard chemotherapy agent.
In this model unless otherwise noted for the individual study, the novel compounds were injected via the intraperitoneal route daily on Days 1-5, inclusive (qdx5); taxotere was administered intravenously on Days 1, 3 and 5 (qodx3).
The doses of the compounds were administered on Days 1, 2, 3, 4, and 7; Taxotere was administered on Days 1, 3 and 7.

[11] = system: MES-SA/Dx5 (Taxol Resistant) human uterine sarcoma; experiment: Drug resistant cell line pair, cytotoxicity (Example 10B); assay type: cell-based; settings: vs MES-SA
From the text: 1) Human Uterine Sarcoma Tumor Cell Line Pair: MES-SA (Taxol Sensitive) and MES-SA/Dx5 (Taxol Resistant).

Jurkat cells = experiment: cells; assay type: cell-based
[12] = system: HL-60/MX-2 (Mitoxantrone-Resistant); experiment: Drug resistant cell line pair, cytotoxicity (Example 10B); assay type: cell-based, human; settings: HL-60 Resistant IC50 relative to HL-60 Sensitive
From the text: 2) Human Acute Promyelocytic Leukemia Cell Line Pair: HL-60 (Mitoxantrone-Sensitive) and HL-60/MX-2 (Mitoxantrone-Resistant)

[13] = system: HL-60/MX2 multidrug resistant; experiment: Cell growth inhibition assay, resazurin (Example 11); assay type: cell-based, human
Procedure: as §6, §7
as §1, with “exposure,” for “exposure”, “phosphate buffered saline” for “PBS”, “3-6” for “3-4”, “dye in medium” for “dye”, “wells.” for “wells. The data were analyzed using Prism software (GraphPad Software).”
HL-60/MX2 is a multidrug resistant tumor cell line derived from the human promyelocytic leukemia cell line, HL-60 and expresses reduced topoisomerase II activity. The data presented in Table 20 summarize the growth inhibitory effects of NPI-2421, NPI-2463, NPI-2503, NPI-2504 and NPI-2506 against HL-60 and its multidrug resistant derivative HL-60/MX2. Mitoxantrone, the topoisomerase II targeting agent was included as a control.

[14] = Lung A549 (1 study), Taxotere Days 1, 3, 5 alone

Procedure for human hepatic P450s: In the recent his study, (±)-phenylahistin was treated with rat hepatic microsome or human hepatic P450s.

C=CC(C)(C)c1[nH]cnc1/C=c1\[nH]c(=O)/c(=C/c2ccccc2)[nH]c1=O [KPU-1, Dehydrophenylahistin] showed an IC50 [1] of 36 ± 12.8 nM, an EC50 (HT-29 human colon cells; Homo sapiens, HT-29, Table 2, read-out: EC50 (nM) HT-29) of 48 nM and an EC50 (HT-29 human colon cells; Homo sapiens, HT-29, Table 5, synthetic potent dehydroPLH derivatives, read-out: EC50) of 48 nM. The EC50 (HT-29 human colon cells; Table 6, proliferation of HT-29 cells, read-out: EC50) was 48 nM, the EC50 [2] was 4.7 nM and the MIC (Candida glabrata) was over 68 µg/mL. For the same compound, the “antifungal potency versus T. rubrum” value (Trichophyton rubrum) was “significantly less potent than the other compounds”, the MIC (Candida albicans) was over 68 µg/mL and the MIC (Aspergillus fumigatus; A. fumigatus isolate #1) was over 16 µg/mL. The MIC (Aspergillus fumigatus; A. fumigatus isolate #2) was over 16 µg/mL, the “DNA laddering potency compared with KPU-2” value [3] was “much less potent” and the “antifungal potency versus the sensitive T. mentagrophytes isolate” value [4] was “weaker but more comparable to the others”.
In the case of CC(=O)O[C@H]1C(=O)[C@@]2(C)[C@H]([C@H](OC(=O)c3ccccc3)[C@]3(O)C[C@H](OC(=O)[C@H](O)[C@@H](NC(=O)c4ccccc4)c4ccccc4)C(C)=C1C3(C)C)[C@]1(OC(C)=O)CO[C@@H]1C[C@@H]2O [Paclitaxel, reference compound], the “MGI (metastasis growth inhibition)” value [5] is reported as 35.0%, the EC50 ([6]; Homo sapiens, MES-SA/Dx5, mean ± standard deviation of three independent experiments) is reported as 2000 ± 150 nM and the Fold change ([6]; ratio of EC50 values (MES-SA/Dx5:MES-SA)) is reported as 417. The “less active against the resistant MES-SA/Dx5 cells” value ([6]; vs MES-SA) was about 400 times, the EC50 [7] was 4.8 ± 2.1 nM and the “Tumor Growth Inhibition (%) Reference Agent” value [8] was 53%. The “Tumor Regression (#/total) Reference Agent” value (“Tumor Regression” for short) [8] was 1/10.
CC(=O)O[C@@]12CO[C@@H]1C[C@H](O)[C@@]1(C)C(=O)[C@H](O)C3=C(C)[C@@H](OC(=O)[C@H](O)[C@@H](NC(=O)OC(C)(C)C)c4ccccc4)C[C@@](O)([C@@H](OC(=O)c4ccccc4)[C@H]21)C3(C)C [Taxotere, reference compound] was tested, and the “Tumor Growth Inhibition (%) Reference Agent” value [9, 14] was 26%, the “Tumor Regression” value [9, 14] was 0/10 and the TGI ([9]; taxotere alone) was 26.1%. The “TGI vs NCI criterion” value [10] was “did not reach the NCI established criterion for a positive effect” and the “Tumor Regression” value (MCF-7 human breast tumor) was 0/20.
For O=C1c2c(O)ccc(O)c2C(=O)c2c(NCCNCCO)ccc(NCCNCCO)c21 [mitoxantrone, Mitoxantrone, reference compound], the “reduced susceptibility of the MES-SA/DX5 cell line” value [11] was 20 fold, the IC50 (Jurkat cells; Homo sapiens, Jurkat, read-out: Cytotoxicity Potency IC50) was 41 nM and the “Cytotoxicity Efficacy % Cell Death” value (Jurkat cells; human) was 99%. For the same compound, the “Ratio to Sensitive” value [12] was 24.1, the Fold change ([13]; ratio of EC50 values (HL-60/MX2:HL-60)) was 26 and the “less active against the resistant HL-60/MX2 cells” value ([13]; vs HL-60) was about 26 times.
With (±)-phenylahistin the “major metabolites P1 and P3, share of the recovered metabolites” value (human hepatic P450s) was “more than 60%” and the metabolites detected (human hepatic P450s) was “at least seven metabolites were detected”.
With “phenylahistin [halimide, reference compound]” the “DNA laddering potency compared with KPU-2” value [3] was “much less potent”.

Reference: patent US8129527B2, “Analogs of dehydrophenylahistins and their therapeutic use” (Nereus Pharmacuticals, Inc., priority 2006, dated 2012)
